How the values were obtained:
[1] = test system: Bovine viral diarrhea virus 1; test: Antiviral activity against BVDV infected in […] cells assessed as inhibition of virus-induced cytopathogenicity by MTT assay; format: functional, organism-based; conditions: Bovine viral diarrhea virus isolates and strains
[2] = Cytotoxicity against […] cells by MTT assay; format: cell-based
[3] = test system: Bovine viral diarrhea virus 1; test: Antiviral activity against BVDV bearing mutant RdRp infected in […] cells assessed as inhibition of virus-induced cytopathogenicity by MTT assay; format: functional, organism-based; conditions: Bovine viral diarrhea virus isolates and strains
[4] = Inhibition of BVDV RNA dependent NS5B polymerase; parameters: species or system Bovine viral diarrhea virus 1
[5] = Inhibition of hepatitis C virus RNA dependent NS5B polymerase; parameters: species or system Hepacivirus hominis
[6] = Selectivity index, ratio of CC50 for […] cells to EC50 for BVDV

| SMILES | EC50 [1] [µM] | further results |
| --- | --- | --- |
| Clc1ccc(/N=N/C2=C3CCCCN3CCC2)cc1Cl | > 30 |  |
| Clc1ccc(/N=N/C=C2\CCCN2Cc2ccccc2)cc1 | > 18 |  |
| CN1C=C(/N=N/c2cccc(C(F)(F)F)c2)CCC1 | 90 |  |
| CN1CCC/C1=C\N=N\c1ccc([N+](=O)[O-])cc1 | 19 |  |
| CN1CCC/C1=C\N=N\c1ccc(Cl)cc1 | 21 |  |
| FC(F)(F)c1cc(/N=N/C=C2\CCCN2Cc2ccccc2)ccc1Cl | > 14 |  |
| Clc1ccc(/N=N/C2=C3CCCCN3CCC2)cc1 | > 60 |  |
| CN1CCC/C1=C\N=N\c1ccc(F)c(C(F)(F)F)c1 | 100 |  |
| O=[N+]([O-])c1cccc(/N=N/C2=C3CCCN3CCC2)c1 | > 68 |  |
| CN1C=C(/N=N/c2ccc(Cl)c([N+](=O)[O-])c2)CCC1 | > 61 |  |
| CN1C=C(/N=N/c2ccc([N+](=O)[O-])cc2)CCC1 | 11 |  |
| COc1ccc(/N=N/C=C2\CCCN2C)cc1 | 18 |  |
| FC(F)(F)c1cc(/N=N/C2=C3CCCCN3CCC2)cc(C(F)(F)F)c1 | > 31 |  |
| CN1CCC/C1=C\N=N\c1c(F)c(F)c(F)c(F)c1F | > 100 |  |
| CN1C=C(/N=N/c2cc(C(F)(F)F)cc(C(F)(F)F)c2)CCC1 | > 64 |  |
| CC(=O)Nc1ccc(-c2nc3cc([N+](=O)[O-])ccc3[nH]2)cc1 | 0.8 | CC50 [2]: > 100 µM; EC50 [3]: > 100 µM |
| Nc1ccc(-c2nc3cc([N+](=O)[O-])ccc3[nH]2)cc1 | 1.5 | CC50 [2]: 79 µM; EC50 [3]: > 79 µM |
| CN1C=C(/N=N/c2cccc(Cl)c2)CCC1 | 12 |  |
| C(/N=N/c1ccccc1)=C1/CCCN1Cc1ccccc1 | > 74 |  |
| CC(=O)Nc1ccc(-c2nc3cc(Cl)c(Cl)cc3[nH]2)cc1 | 1 | CC50 [2]: 58 µM; EC50 [3]: > 100 µM |
| CN1C=C(/N=N/c2ccc(F)c(C(F)(F)F)c2)CCC1 | > 100 |  |
| CN1CCC/C1=C\N=N\c1cccc([N+](=O)[O-])c1 | 5.5 |  |

| SMILES | EC50 [1] [µM] | further results |
| --- | --- | --- |
| Clc1ccccc1/N=N/C1=C2CCCCN2CCC1 | > 100 |  |
| FC(F)(F)c1cccc(/N=N/C2=C3CCCCN3CCC2)c1 | > 8 |  |
| Brc1cccc(/N=N/C2=C3CCCCN3CCC2)c1 | > 10 |  |
| Cc1ccc(/N=N/C2=CN(C)CCC2)cc1 | > 100 |  |
| Brc1ccc(/N=N/C2=C3CCCCN3CCC2)cc1 | > 59 |  |
| CN1C=C(/N=N/c2ccc(Br)cc2)CCC1 | 60 |  |
| CN1C=C(/N=N/c2ccc(Cl)cc2)CCC1 | > 58 |  |
| CN1C=C(/N=N/c2ccccc2Cl)CCC1 | 100 |  |
| FC(F)(F)c1cc(/N=N/C2=C3CCCCN3CCC2)ccc1Cl | > 35 |  |
| CN1C=C(/N=N/c2ccc(F)cc2)CCC1 | > 48 |  |
| CN1CCC/C1=C\N=N\c1cccc(C(F)(F)F)c1 | 21 |  |
| Clc1ccc(/N=N/C2=C3CCCN3CCC2)cc1Cl | > 67 |  |
| c1ccc2c(/N=N/C3=C4CCCN4CCC3)cccc2c1 | 3.5 |  |
| c1ccc2c(/N=N/C3=C4CCCN4CCC3)nncc2c1 | > 100 |  |
| CN1C=C(/N=N/c2cccc(Br)c2)CCC1 | 19 |  |
| Fc1ccc(/N=N/C2=C3CCCCN3CCC2)cc1C(F)(F)F | > 100 |  |
| CN1C=C(/N=N/c2cccc3ccccc23)CCC1 | 5 | CC50 [2]: > 100 µM; IC50 [4]: 28 µM; IC50 [5]: 55 µM; EC50 [3]: > 100 µM |
| CN1CCC/C1=C\N=N\c1cccc(Br)c1 | 9 |  |
| CN1CCC/C1=C\N=N\c1ccccc1 | 10 |  |
| Clc1ccc(/N=N/C=C2\CCCN2Cc2ccccc2)cc1Cl | > 79 |  |
| CN1CCC/C1=C\N=N\c1ccc(F)cc1 | 18 |  |
| FC(F)(F)c1cc(/N=N/C2=C3CCCCN3CCC2)ccc1Br | 61 |  |

| SMILES | EC50 [1] [µM] | further results |
| --- | --- | --- |
| Fc1ccc(/N=N/C2=C3CCCCN3CCC2)cc1 | > 56 |  |
| Clc1cccc(/N=N/C2=C3CCCCN3CCC2)c1 | > 20 |  |
| CN1CCC/C1=C\N=N\c1ccc(Br)c(C(F)(F)F)c1 | 46 |  |
| O=[N+]([O-])c1cc(/N=N/C2=C3CCCCN3CCC2)ccc1Cl | > 18 |  |
| Cc1ccc(/N=N/C=C2\CCCN2C)cc1 | 20 |  |
| CN1C=C(/N=N/c2ccc(Br)c(C(F)(F)F)c2)CCC1 | 40 |  |
| CN1C=C(/N=N/c2c(F)c(F)c(F)c(F)c2F)CCC1 | > 100 |  |
| FC(F)(F)c1cc(/N=N/C2=C3CCCN3CCC2)ccc1Cl | > 21 |  |
| CN1C=C(/N=N/c2cccc([N+](=O)[O-])c2)CCC1 | 0.8 | CC50 [2]: > 100 µM; IC50 [4]: 32 µM; Ratio CC50/EC50 [6]: 125; IC50 [5]: 30 µM |
| c1ccc2c(/N=N/C3=C4CCCCN4CCC3)cccc2c1 | 6 |  |
| CN1CCC/C1=C\N=N\c1ccc(Cl)c(Cl)c1 | 16 |  |
| CN1C=C(/N=N/c2ccc(Cl)c(C(F)(F)F)c2)CCC1 | > 28 |  |
| O=[N+]([O-])c1cccc(/N=N/C2=C3CCCCN3CCC2)c1 | > 100 |  |
| CN1C=C(/N=N/c2ccccc2)CCC1 | > 100 |  |
| CN1CCC/C1=C\N=N\c1cc(C(F)(F)F)cc(C(F)(F)F)c1 | > 36 |  |
| CN1C=C(/N=N/c2ccc(Cl)c(Cl)c2)CCC1 | 7 |  |
| O=[N+]([O-])c1ccc(/N=N/C2=C3CCCCN3CCC2)cc1 | 86 |  |
| CN1CCC/C1=C\N=N\c1ccc(Br)cc1 | 11 |  |
| Clc1ccc(/N=N/C2=C3CCCN3CCC2)cc1 | > 30 |  |
| C[C@@]1(O)[C@H](O)[C@@H](CO)O[C@H]1n1cnc2c(=O)[nH]c(N)nc21 [2'-B-METHYL-GUANOSINE] | 1.7 |  |
| Cc1ccc(/N=N/C=C2\CCCN2Cc2ccccc2)cc1 | > 22 |  |

— ChEMBL document CHEMBL1212868, “Synergistic experimental/computational studies on arylazoenamine derivatives that target the bovine viral diarrhea virus RNA-dependent RNA polymerase” (Bioorg Med Chem, 2010)
